Results published in patent US20100029710A1, “COMPOUNDS HAVING BOTH ANGIOTENSIN II RECEPTOR ANTAGONISM AND PPARy ACTIVATING ACTIVITIES” (Pfizer Products Inc., priority 2006, published 2010).

Assays:
[1] = biological target: T1, Human recombinant AT1 receptor (Homo sapiens, UniProt P30556); experiment: AT1 receptor radioligand binding (flashplate); details: 125I Sar1,Ile8-Angiotensin II radioligand
T1 construct: purchased
T1 sequence (P30556 1-359): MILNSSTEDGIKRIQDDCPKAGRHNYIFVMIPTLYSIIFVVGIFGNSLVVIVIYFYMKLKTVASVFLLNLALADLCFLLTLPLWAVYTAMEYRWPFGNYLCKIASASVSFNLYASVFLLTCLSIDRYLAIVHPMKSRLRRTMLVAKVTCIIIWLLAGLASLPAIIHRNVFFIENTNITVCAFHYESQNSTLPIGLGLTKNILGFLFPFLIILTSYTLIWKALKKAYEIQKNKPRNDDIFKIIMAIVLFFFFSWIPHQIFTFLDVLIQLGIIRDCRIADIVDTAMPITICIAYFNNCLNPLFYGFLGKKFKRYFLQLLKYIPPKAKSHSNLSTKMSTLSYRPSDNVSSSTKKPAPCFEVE
Procedure: Angiotensin II receptor antagonist activity may be determined using commercially available flashplates coated with the AT1 or AT2 receptor which provide a rapid and high throughput means to evaluate compounds compared to traditional filtration based assays (Regina M. Van Der Hee et al., Journal of Biomolecular Screening 10(2); 2005; 118-126).
AT1 receptor affinity was determined in a radioligand binding format using commercially available flashplate technology. Human recombinant AT1 receptor were coated on the wells of a 96 well flashplate and test compounds were diluted and added to wells at a final concentration range of 50 μM to 1 μM. Total binding was determined in the absence of compound and non-specific binding in the presence of 10 μM cold Angiotensin II. ^125I labeled Sar^1, Ile^8-Angiotensin II was added to all wells at Kd concentration and left for 2 hours at room temperature to equilibrate. Plates were read on a TopCount (Perkin Elmer) and concentration-response curves constructed using commercial curve fitting software. The Ki was determined via interpolation and the use of the Cheng-Prussof equation.

[2] = biological target: T2, human PPARγ LBD bound to Gal4 DBD (Homo sapiens, UniProt P37231); experiment: PPARγ transfection luciferase reporter assay in HepG2 cells; type: cell-based; details: for Emax: HepG2, 24 h, compared to full agonist response (standard TZD full agonist), read-out: PPARγ % activation; for EC50: HepG2, 24 hours exposure
T2 construct: expressed in transfected cells; host or cells: HepG2
T2 sequence (P37231 238-503 limits assumed): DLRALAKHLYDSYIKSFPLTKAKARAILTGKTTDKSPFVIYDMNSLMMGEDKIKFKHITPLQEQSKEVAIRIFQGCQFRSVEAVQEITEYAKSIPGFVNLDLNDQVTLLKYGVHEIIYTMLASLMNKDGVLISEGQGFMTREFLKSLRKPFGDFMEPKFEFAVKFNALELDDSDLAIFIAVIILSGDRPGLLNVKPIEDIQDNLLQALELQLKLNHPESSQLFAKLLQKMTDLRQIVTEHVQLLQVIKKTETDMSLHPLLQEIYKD
Procedure: PPARγ agonist activity may be determined by a cell line transiently transfected with PPARγ bound to a DNA binding domain that controls luciferase expression. The degree of receptor agonism is measured by the amount of luciferase activity after compound treatment. The ratio of treated cells over vehicle control cells provides a measure of fold activation and allows an EC50 (shown in tables I and II as […] EC50) and % activation to be calculated
A human hepatocellular carcinoma cell line (HepG2) was subcultured into dishes and transiently transfected with DNA to allow expression of human PPARγ LBD bound to Gal4 DBD. Luciferase reporter gene and β-galactosidase control genes were co-transfected to enable activity to be measured. After 24 hours, cells were exposed to compounds in the concentration range of 0.1 nM-100 μM and left for a further 24 hours. Luciferase activity is determined by luminometry and PPARγ activation is expressed as a ratio of luciferase activity to β-galactosidase activity to account for transfection efficiency. Potency is described by an EC50 defined as the concentration of compound producing receptor activation equivalent to 50% of the maximum for that compound (shown in Table I as transfection EC50). The maximum fold activation is a measure of efficacy and is expressed as a percentage of a reference full agonist run in the same assay. Efficacy is described by % activation of receptor relative to a standard thiazolidinedione (TZD) full agonist.

Row | Structure (SMILES) | IC50 [1] | Emax [2] | EC50 [2]
1 | CCc1nc2c(C)cc(CC(O)C(C)C)nc2n1[C@H]1CCc2cc(-c3ccccc3-c3nnn[nH]3)ccc21 (stereo partly drawn) [Example 21, 1-(3-((1S)-5-(2-(1H-tetrazol-5-yl)phenyl)-2,3-dihydro-1H-inden-1-yl)-2-ethyl-7-methyl-3H-imidazo[4,5-b]pyridin-5-yl)-3-methylbutane-2-ol] | 3.1 nM | 23% | 100 nM
2 | CCc1nc2c(C)cc(Cn3nccn3)nc2n1[C@H]1CCc2cc(-c3ccccc3-c3nnn[nH]3)ccc21 [Example 66, 3-((1S)-5-(2-(1H-tetrazol-5-yl)phenyl)-2,3-dihydro-1H-inden-1-yl)-5-((2H-1,2,3-triazol-2-yl)methyl)-2-ethyl-7-methyl-3H-imidazo[4,5-b]pyridine] | 6 nM | 22% | 435 nM
3 | CCc1nc2c(C)cc(CCc3ccccc3)nc2n1[C@H]1CCc2cc(-c3ccccc3-c3nnn[nH]3)ccc21 [Example 30, 3-((1S)-5-(2-(1H-tetrazol-5-yl)phenyl)-2,3-dihydro-1H-inden-1-yl)-2-ethyl-7-methyl-5-phenethyl-3H-imidazo[4,5-b]pyridine] | 6 nM | 28% | 160 nM
4 | CCc1nc2c(C)cc(CCC3(O)CCCCC3)nc2n1[C@H]1CCc2cc(-c3ccccc3-c3nnn[nH]3)ccc21 [Example 52, 1-(2-(3-((1S)-5-(2-(1H-tetrazol-5-yl)phenyl)-2,3-dihydro-1H-inden-1-yl)-2-ethyl-7-methyl-3H-imidazo[4,5-b]pyridin-5-yl)ethyl)cyclohexanol] | 1.3 nM | 36% | 290 nM
5 | CCc1nc2c(C)cc(CCC(O)c3cccnc3)nc2n1[C@H]1CCc2cc(-c3ccccc3-c3nnn[nH]3)ccc21 (stereo partly drawn) [Example 34, 3-(3-((1S)-5-(2-(1H-tetrazol-5-yl)phenyl)-2,3-dihydro-1H-inden-1-yl)-2-ethyl-7-methyl-3H-imidazo[4,5-b]pyridin-5-yl)-1-(pyridin-3-yl)propan-1-ol] | 2.1 nM | 12% | 595 nM
6 | CCc1nc2c(C)cc(CC[C@@](C)(O)C(C)C)nc2n1[C@H]1CCc2cc(-c3ccccc3-c3nnn[nH]3)ccc21 [Example 55, (R)-1-(3-((1S)-5-(2-(1H-tetrazol-5-yl)phenyl)-2,3-dihydro-1H-inden-1-yl)-2-ethyl-7-methyl-3H-imidazo[4,5-b]pyridin-5-yl)-3,4-dimethylpentan-3-ol] | 2.4 nM | 38% | 150 nM
7 | CCc1nc2c(C)cc(CCC(O)(CC)CC)nc2n1[C@H]1CCc2cc(-c3ccccc3-c3nnn[nH]3)ccc21 [Example 56, 1-(3-((1S)-5-(2-(1H-tetrazol-5-yl)phenyl)-2,3-dihydro-1H-inden-1-yl)-2-ethyl-7-methyl-3H-imidazo[4,5-b]pyridin-5-yl)-3-ethylpentane-3-ol] | 2.5 nM | 31% | 110 nM
8 | CCCc1nc2c(C)cc(CCC(C)O)nc2n1[C@H]1CCc2cc(-c3ccccc3-c3nnn[nH]3)ccc21 (stereo partly drawn) [Example 49, 4-(3-((1S)-5-(2-(1H-tetrazol-5-yl)phenyl)-2,3-dihydro-1H-inden-1-yl)-7-methyl-2-propyl-3H-imidazo[4,5-b]pyridin-5-yl)butan-2-ol] | 1.6 nM | 18% | 815 nM
9 | CCc1nc2c(C)cc(C(C)(C)OC)nc2n1[C@H]1CCc2cc(-c3ccccc3-c3nnn[nH]3)ccc21 [Example 17, 3-((1S)-5-(2-(1H-tetrazol-5-yl)phenyl)-2,3-dihydro-1H-inden-1-yl)-2-ethyl-5-(2-methoxypropan-2-yl)-7-methyl-3H-imidazo[4,5-b]pyridine] | 8.8 nM | 24% | 65 nM
10 | CCc1nc2c(C)cc(CCC3(O)CCOC3)nc2n1[C@H]1CCc2cc(-c3ccccc3-c3nnn[nH]3)ccc21 (stereo partly drawn) [Example 54, 3-(2-(3-((1S)-5-(2-(1H-tetrazol-5-yl)phenyl)-2,3-dihydro-1H-inden-1-yl)-2-ethyl-7-methyl-3H-imidazo[4,5-b]pyridin-5-yl)ethyl)-tetrahydrofuran-3-ol] | 1 nM | 26% | 535 nM
11 | CCc1nc2c(C)cc(CCCc3cccnc3)nc2n1[C@H]1CCc2cc(-c3ccccc3-c3nnn[nH]3)ccc21 [Example 32, 3-((1S)-5-(2-(1H-tetrazol-5-yl)phenyl)-2,3-dihydro-1H-inden-1-yl)-2-ethyl-7-methyl-5-(3-(pyridin-3-yl)propyl)-3H-imidazo[4,5-b]pyridine] | 2.1 nM | 20% | 510 nM
12 | CCc1nc2c(C)cc(CC3CCCCC3=O)nc2n1[C@H]1CCc2cc(-c3ccccc3-c3nnn[nH]3)ccc21 (stereo partly drawn) [Example 63, 2-((3-((1S)-5-(2-(1H-tetrazol-5-yl)phenyl)-2,3-dihydro-1H-inden-1-yl)-2-ethyl-7-methyl-3H-imidazo[4,5-b]pyridin-5-yl)methyl)cyclohexanone] | 2.4 nM | 27% | 295 nM
13 | C=CCc1cc(C)c2nc(CC)n([C@H]3CCc4cc(-c5ccccc5-c5nnn[nH]5)ccc43)c2n1 [Example 9, 3-((1S)-5-(2-(1H-tetrazol-5-yl)phenyl)-2,3-dihydro-1H-inden-1-yl)-5-allyl-2-ethyl-7-methyl-3H-imidazo[4,5-b]pyridine] | 2.7 nM | 27% | 60 nM
14 | CCc1nc2c(C)cc(CC[C@@H](O)C(C)C)nc2n1[C@H]1CCc2cc(-c3ccccc3-c3nnn[nH]3)ccc21 [Example 57, (R)-1-(3-((1S)-5-(2-(1H-tetrazol-5-yl)phenyl)-2,3-dihydro-1H-inden-1-yl)-2-ethyl-7-methyl-3H-imidazo[4,5-b]pyridin-5-yl)-4-methyl pentan-3-ol] | 2.5 nM | 28% | 285 nM
15 | CCCc1nc2c(C)cc(CCC(C)(O)CC)nc2n1[C@H]1CCc2cc(-c3ccccc3-c3nnn[nH]3)ccc21 (stereo partly drawn) [Example 50, 1-(3-((1S)-5-(2-(1H-tetrazol-5-yl)phenyl)-2,3-dihydro-1H-inden-1-yl)-7-methyl-2-propyl-3H-imidazo[4,5-b]pyridin-5-yl)-3-methylpentan-3-ol] | 1.7 nM | 30% | 415 nM
16 | CCc1nc2c(C)cc(Cc3ccccn3)nc2n1[C@H]1CCc2cc(-c3ccccc3-c3nnn[nH]3)ccc21 [Example 2, 3-((1S)-5-(2-(1H-tetrazol-5-yl)phenyl)-2,3-dihydro-1H-inden-1-yl)-2-ethyl-7-methyl-5-(pyridin-2-ylmethyl)-3H-imidazo[4,5-b]pyridine] | 3.5 nM | 29% | 105 nM
17 | CCc1nc2c(C)cc(CCc3ccc(OC)cc3)nc2n1[C@H]1CCc2cc(-c3ccccc3-c3nnn[nH]3)ccc21 [Example 27, 3-((1S)-5-(2-(1H-tetrazol-5-yl)phenyl)-2,3-dihydro-1H-inden-1-yl)-5-(4-methoxyphenethyl)-2-ethyl-7-methyl-3H-imidazo[4,5-b]pyridine] | 2 nM | 21% | 485 nM
18 | CCc1nc2c(C)cc(CC[C@@H](C)O)nc2n1[C@H]1CCc2cc(-c3ccccc3-c3nnn[nH]3)ccc21 (single isomer, unassigned) [Example 37] | 0.5 nM | 24% | 270 nM
